Laboratory results: US20130252983A1, “ACTIVATING PHOSPHORYLATION SITE ON GLUTAMINASE C” (CORNELL UNIVERSITY, priority 2010, published 2013)

How the values were obtained:
normal NIH 3T3 cells = experiment: Growth and morphology of control NIH 3T3 cells; assay type: cell-based, mouse; conditions: 10% calf serum; 10 μM (growth), 5 μM (morphology)
Method: FIGS. 1A-E illustrate that the small molecule 968 inhibits cellular transformation. […] Cells were fixed and stained with crystal violet for counting of foci. Right: 968 was serially diluted (10, 5, 2.5, and 1.25 μM) and evaluated for its ability to inhibit focus formation. […] After 6 days, the cells were counted. 100% represents the number of Dbl-transformed cells counted in the absence of 968 (27.5×10^4 cells). Data represent the average of 3 experiments (±s.d.). […] At the indicated times, the cells were counted. Data represent the average of 3 experiments (±s.d.).

SKBR3 cells = experiment: Growth to high density and in low serum, SKBR3; assay type: cell-based, human; conditions: 10 μM
Method: FIGS. 2A-G illustrate effects of 968 on the transforming activity of constitutively active Rho GTPases and human breast cancer cells. […] Cells were scored after 14 days and plotted as the percentage of the total number of colonies greater than 50 μm in diameter. Data represent the average of 3 experiments (±s.d.). […] Data represent the average of 3 experiments (±s.d.). […] Data represent the average of 3 experiments (±s.d.). […] After 24 hours at 37° C., the migratory cells were fixed, stained with GIEMSA, and counted. Data represent the average of 3 experiments (±s.d.). […] Data represent the average of 3 experiments (±s.d.). […] Data represent the average of 3 experiments (±s.d.). […] Data represent the average of 3 experiments (±s.d.).
100%=620 moles of glutamine hydrolyzed per minute per mole of enzyme. Data represent the average of 3 experiments (±s.d.). […] Following precipitation of the beads and re-suspension, the samples were analyzed by Western blotting with anti-V5 antibody. […] Data represent the average of 3 experiments (±s.d.). […] Data represent the average of 3 experiments (±s.d.). […] Data represent the average of 3 experiments (±s.d.). FIG. 3E NIH 3T3 cells transiently expressing Dbl were assayed for focus formation in the presence of 10 μM 968 alone or together with 7 mM dimethyl α-ketoglutarate. […] 100%=680 nM glutamine hydrolyzed per minute per 10^5 cells. […]

[1] = tested on: GA activity of SKBR3 cells; experiment: GA activity in mitochondrial fractions of treated SKBR3 cells; assay type: cell-based, human; conditions: 10 μM, 48 hours
Method: 100%=620 moles of glutamine hydrolyzed per minute per mole of enzyme. Data represent the average of 3 experiments (±s.d.). […] Following precipitation of the beads and re-suspension, the samples were analyzed by Western blotting with anti-V5 antibody. […] Data represent the average of 3 experiments (±s.d.). […] Data represent the average of 3 experiments (±s.d.). […] Data represent the average of 3 experiments (±s.d.). FIG. 3E NIH 3T3 cells transiently expressing Dbl were assayed for focus formation in the presence of 10 μM 968 alone or together with 7 mM dimethyl α-ketoglutarate. […] 100%=680 nM glutamine hydrolyzed per minute per 10^5 cells. Data are the average of 3 experiments (±s.d.). […] 100%=750 nM glutamine hydrolyzed per minute per 10^5 cells. Data represent the average of 3 experiments (±s.d.).
(§1) FIGS. 4A-E illustrate the role of glutaminase C activity in cellular transformation. […] Data represent the average of 3 experiments (±s.d.). […] Data represent the average of 3 experiments (±s.d.). […] 100% represents the activity measured in untreated Dbl-transformed cells. The data represent the average of 2 experiments. […] 100% represents the activity measured in untreated SKBR3 cells. The data represent the average of 2 experiments. […] Data represent the average of 3 experiments (±s.d.).
FIGS. 11A-E illustrate the effects of different treatments on GA activity. […] The addition of Pi stimulated the GA activity in control 3T3 cells, Dbl-expressing cells, and Cdc42(F28L)-expressing cells by ˜6-fold, 2-fold, and 3-fold, respectively. 100% represents the Pi-stimulated activity measured for Dbl-transformed cells that were not treated with 968. Data is the average of 3 experiments (±s.d.). […] The addition of Pi stimulated the GA activity of HMECs, MDA-MB231 cells, and SKBR3 cells by ˜5-fold, 2-fold, and 1.4-fold, respectively. […] The data are plotted as the percentage of GA activity measured for untreated SKBR3 cells and represent the average of 2 experiments. […] 100% represents the Pi-stimulated activity measured for untreated Dbl-transformed cells. […]

[2] = tested on: NIH 3T3 cells stably expressing Cdc42(F28L) and transiently expressing mouse GAC; experiment: Focus formation of Cdc42(F28L) cells transiently expressing GAC; assay type: cell-based
From the text: as §1

CN(C)c1ccc(C2Nc3ccc4ccccc4c3C3=C2C(=O)CC(C)(C)C3)cc1Br (centres unmarked) [Compound 968, 5-[3-bromo-4-(dimethylamino)phenyl]-2,2-dimethyl-2,3,5,6-tetrahydrobenzo[a]]
effect on growth or morphology of normal NIH 3T3 cells (normal NIH 3T3 cells): no significant effects | growth in low serum (SKBR3 cells; 1% fetal bovine serum): inhibits their growth | growth to high density (SKBR3 cells; 10% fetal bovine serum, 6 days): inhibits their growth | basal GA activity [1]: sensitive to 968 | focus-forming activity [2]: can be blocked
